Patent publication US20250134889A1, “TARGETING IRE1 KINASE AND FMRP FOR PROPHYLAXIS, MANAGEMENT AND TREATMENT OF ATHEROSCLEROSIS” (CEDARS-SINAI MEDICAL CENTER, priority 2022, published 2025)

Columns and labels:
[1] = target: T1, human IRE1-kinase/RNase domains (amino acids 468-977) (Homo sapiens, UniProt O75460); test: Kinase reaction with purified recombinant IRE1 and FMRP; type: biochemical; conditions: purified proteins, ATP-γ-S
T1 construct: recombinant human IRE1-kinase/RNase domains (amino acids 468-977); purchased Biotech (so in the source) E31-11G
T1 sequence (O75460 468-977): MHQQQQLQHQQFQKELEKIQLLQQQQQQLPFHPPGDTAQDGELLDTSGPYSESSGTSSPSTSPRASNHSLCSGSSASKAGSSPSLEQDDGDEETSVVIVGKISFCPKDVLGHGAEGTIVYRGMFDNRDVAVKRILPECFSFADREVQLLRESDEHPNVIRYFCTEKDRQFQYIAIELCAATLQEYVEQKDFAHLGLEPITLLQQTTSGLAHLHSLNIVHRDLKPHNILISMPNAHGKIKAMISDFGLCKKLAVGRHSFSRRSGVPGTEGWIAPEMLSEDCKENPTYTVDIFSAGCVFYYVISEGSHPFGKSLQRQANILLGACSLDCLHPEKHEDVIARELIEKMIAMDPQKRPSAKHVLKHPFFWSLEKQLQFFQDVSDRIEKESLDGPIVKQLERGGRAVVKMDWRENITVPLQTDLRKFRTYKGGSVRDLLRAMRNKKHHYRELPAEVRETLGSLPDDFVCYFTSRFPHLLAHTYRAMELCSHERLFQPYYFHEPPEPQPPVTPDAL

[2] = test system: peritoneal macrophages; test: In vivo foam cell formation assay; set-up: species or system mouse; conditions: Apoe-/- mice, WD 12 weeks, 30 mg/kg/day in the last 4 weeks, ORO staining
Method: FIGS. 2A-2M depict that FMRP deficiency enhances RCT while reducing foam cell formation in vivo. (Data are mean±SEM. Unpaired t-test with Welch's correction. * P≤0.05, ** P≤0.01, *** P≤0.001.) • 2A. Fmr1^+/+ and Fmr1^−/− mice were injected with AAV_PCSK9 and fed with 16 weeks of WD. Residential PM were stained with Oil Red O (ORO) and imaged (n=7; Scale bar=50 μm). • 2B. Apoe-/mice were fed with WD (12 weeks) and injected with vehicle (DMSO) or AMG-18 (30 mg/kg/day) in the last 4 weeks of WD. Residential PM were stained with ORO and imaged (n=5; Scale bar=50 μm). • 2C-2E. […] Macrophages were pre-loaded with fluorescently labeled cholesterol (16 hours) followed by incubation in efflux medium including APOA1 (25 μg/ml) or HDL (50 μg/ml) as acceptors for 6 hours. % Efflux was calculated as cholesterol signal in medium/cholesterol signal in medium and cell: Cholesterol efflux in (2F) Fmr1+/+ and Fmr1^−/− BMDM (n=4) and in (2G) BMDM that were pre-treated either with DMSO or AMG-18 (5 μM; 1 hour) (n=4). • 2H-2K. […] Protein lysates from macrophages used in FIG. 2C were analyzed by western blotting using specific antibodies for FMRP and β-Actin. • 2M. […]

- FMRP phosphorylation in kinase reaction [1]: AMG-18-sensitive
- IRE1 phosphorylation in kinase reaction [1]: AMG-18-sensitive
SMILES: Cc1ccc2c(NS(=O)(=O)c3ccccc3Cl)cccc2c1Oc1ncccc1-c1ccnc(N[C@H]2CCCNC2)n1 [AMG-18]
- foam cell formation in the peritoneum [2]: reduced
